IC50 and solubility in water data for one molecule are collected here from patent US20240156982A1, “METHOD OF FORMING PEPTIDE-COATED NANOPARTICLES” (Research Foundation of the City University of New York, priority 2022, published 2024).

In data set [1] the test system is HUVEC. The data set can be described thus: MTT viability assay. The class given is cell-based, human. The procedure: (§1) FIG. 8 depicts a series of graphs showing in vitro viability with RGDFFF (SEQ ID NO: 1)-CA4 NP. Each column represents the mean and standard deviation of N=3 and p<0.005 (HUVEC, OVCAR-3), p<0.04 (TOV-21G, OV-90), p<0.03 (CP70), p<0.02 (A2780), p<0.01 (ES-2), p<0.12 (SKOV-3).
(§2) The biological activity of RGDFFF (SEQ ID NO: 1)-CA4 NPs in cell culture was also evaluated. As determined by HPLC, the CA4 drug payload in the NP was 0.2 wt. %. First, IC50 values were established for the NPs in all cells and subsequently performed MTT viability assays in HUVEC and OvCA cells using the respective IC50 values. The RGDFFF-CA4 NPs were compared to cells only without treatment, free CA4, and empty RGDFFF (SEQ ID NO: 1)-NPs without CA4, as shown in FIG. 8. […] Optical microscopy was used to examine the morphological changes in the cells after incubation with RGDFFF (SEQ ID NO: 1)-CA4 NP. This was done since CA4 is a microtubule depolymerizing agent that disrupts internal cell architecture.
For orientation: Formazan colour is commonly taken as a measure of viable cells.

For data set [2] the following is noted: cited from earlier work.
Data set [3] has as its system ES-2. The data set can be described thus: MTT viability assay. The class given is cell-based. The procedure:
as §1, §2

In data set [4] the test system is A2780. The data set can be described thus: MTT viability assay. The data set is classed as cell-based. The procedure:
as §1, §2

Data set [5] relates to OV-90. The data set is described as follows: MTT viability assay. The class given is cell-based. The protocol: as §1, §2
The subject of data set [6] is TOV-21G. The data set is described as follows: MTT viability assay. The data set is classed as cell-based. The procedure:
as §1, §2

Data set [7] deals with CP70. The data set is described as follows: MTT viability assay. The data set is classed as cell-based. The procedure: as §1, §2
In data set [8] the test system is OVCAR-3. The data set is described as follows: MTT viability assay. The data set is classed as cell-based. The procedure:
as §1, §2

Data set [9] has as its system SKOV-3. The data set is described as follows: MTT viability assay. The class given is cell-based. The protocol: as §1, §2

The structures appear in SMILES notation.

Usually IC50 stands for the midpoint of a concentration-inhibition curve. A higher IC50 goes with weaker potency in that assay. As to `COc1ccc(/C=C\c2cc(OC)c(OC)c(OC)c2)cc1O` [CA4, combretastatin A4], the IC50 in data set [1] stood at 2 nM; in data set [3] it was 5 nM; in data set [4], 5 nM; in [5] it was 100 nM; in [6] it was 25 nM; in data set [7], 4 nM. Moreover, the IC50 in [8] was 2.5 nM; in data set [9] it was 10 nM. The solubility in water result in [2] was “not soluble in water”.
